The text below walks through data of patent publication US6084074A, “Stabilized aqueous liquid preparations of blood coagulation factor XIII” (Centeon Pharma GmbH, priority 1995, dated 2000).

In data set [1] the test system is factor XIII prepared by recombinant DNA technology. As to the kind of experiment: storage stabilizer effect on factor XIII prepared by recombinant DNA technology. It counts as physicochemical, human.
Data set [2] concerns human blood coagulation factor XIII. The experiment in a line: optimum concentration of stabilizers: residual factor XIII activity after 60° C. for 30 minutes (Example 1). It is filed as physicochemical. An excerpt:
As for the measuring methods of factor XIII activity, fibrin formation, transglutaminase activity measurement, and immunologic measurement of antigen amount can be mentioned. Herein, the dansylcadaverine method (Nishida J., et al. Thromb. Res., vol. 36 pp. 123-131 (1984)) was adopted which can determine quantitatively the active factor XIII with high accuracy. Dansylcadaverine (purchased from YATRON) is a fluorescent amine which is the substrate of factor XIII, and forms dansylcadaverine-casein complex with casein by the action of factor XIII; the complex is separated by gel-filtration after the reaction and the factor XIII activity can be determined by the fluorescence intensity of the complex. The factor XIII activity is expressed by units; one unit is the amount of factor XIII which is contained in one milliliter of normal human plasma.
Optimum concentration of the present stabilizers was investigated.
To factor XIII produced according to the recombinant DNA technology as disclosed in DE 3804890 Al and incorporated by reference herein, (adjusted to the final titer of 100 units/ml with the water for injection according to the Pharmacopoeia of Japan) was added galactose, sucrose, D-sorbitol, sodium L-glutamate, sodium L-aspartate or L-histidine, and the mixture was warmed in a hot water bath at 60° C. for 30 minutes and then the activity of factor XIII was determined. Residual activity rate (%) of factor XIII was calculated, defining as 100% factor XIII activity of the preparation wherein factor XIII solution was adjusted to a titer of 100 units/ml.

Take `O=C(O)[C@@H]1C[C@@H](O)CN1` [hydroxyproline]: the “effect as storage stabilizer (in words)” value in data set [1] is recorded as “ineffective”.
As for `N[C@@H](CC(=O)[O-])C(=O)[O-].[Na+].[Na+]` [Sodium L-aspartate, sodium L-aspartate], the “Residual Activity Rate” value was 83.3% in data set [2] (additive conc. 0.125 w/v %); 80.9% in data set [2] (additive conc. 0.25 w/v %); 93.3% in data set [2] (additive conc. 0.5 w/v %); 101.1% in data set [2] (additive conc. 1.0 w/v %); 66.5% in data set [2] (additive conc. 2.0 w/v %); 58.8% in data set [2] (additive conc. 5.0 w/v %). For the same compound, the “Residual Activity Rate” value in data set [2] (additive conc. 10 w/v %) is on record as 55.4%.
Turning to `NC(=O)CC[C@H](N)C(=O)O` [glutamine], in data set [1], the “effect as storage stabilizer (in words)” value is “ineffective”.
The same measure, in the same setting: the entry for `C[C@H](N)C(=O)O` [alanine] is “ineffective”.
As for `OC[C@@H](O)[C@@H](O)[C@H](O)[C@@H](O)CO` [D-Sorbitol], the “effective concentration of stabilizer” value in data set [2] is reported as 1.25-40 w/v %. For the same compound, the “Residual Activity Rate” value in data set [2] (additive conc. 1.25 w/v %) came to 73.8%; in data set [2] (additive conc. 2.5 w/v %), 73.9%; in data set [2] (additive conc. 5.0 w/v %), 74.5%; in data set [2] (additive conc. 10 w/v %), 94.0%; in data set [2] (additive conc. 15 w/v %), 98.4%; in data set [2] (additive conc. 20 w/v %), 96.0%. For the same compound, in data set [2] (additive conc. 40 w/v %), the “Residual Activity Rate” value came out at 86.9%.
With galactose, the “effective concentration of stabilizer” value in data set [2] was 1.25-40 w/v %.
Take `NCC(=O)O` [Glycine]: the “effect as storage stabilizer (in words)” value in data set [1] is “ineffective”.
Still for that read-out and setting: the entry for glucose is “ineffective”.
In the case of `OC[C@H]1O[C@@](CO)(O[C@H]2O[C@H](CO)[C@@H](O)[C@H](O)[C@H]2O)[C@@H](O)[C@@H]1O` [Sucrose], the “effective concentration of stabilizer” value in data set [2] is recorded as 1.25-40 w/v %. The “Residual Activity Rate” value in data set [2] (additive conc. 1.25 w/v %) was 86.7%; in data set [2] (additive conc. 2.5 w/v %), 88.6%; in data set [2] (additive conc. 5.0 w/v %), 90.0%; in data set [2] (additive conc. 10 w/v %) it was 99.0%; in data set [2] (additive conc. 15 w/v %) it was 100.0%; in data set [2] (additive conc. 20 w/v %) it was 96.2%. Besides, in data set [2] (additive conc. 40 w/v %), the “Residual Activity Rate” value amounted to 75.7%.
As to `N[C@@H](CCC(=O)[O-])C(=O)[O-].[Na+].[Na+]` [Sodium L-glutamate, sodium L-glutamate], the “Residual Activity Rate” value in data set [2] (additive conc. 0.125 w/v %) stood at 76%; in data set [2] (additive conc. 0.25 w/v %), 71.1%; in data set [2] (additive conc. 0.5 w/v %) it was 98.6%; in data set [2] (additive conc. 1.0 w/v %), 92.5%; in data set [2] (additive conc. 2.0 w/v %) it was 87.8%; in data set [2] (additive conc. 5.0 w/v %), 79.4%. In addition, the “Residual Activity Rate” value in data set [2] (additive conc. 10 w/v %) amounted to 65.3%.
As to `N[C@@H](Cc1c[nH]cn1)C(=O)O` [L-Histidine, L-histidine], the “Residual Activity Rate” value worked out at 62.2% in data set [2] (additive conc. 0.125 w/v %); 71.6% in data set [2] (additive conc. 0.25 w/v %); 78.4% in data set [2] (additive conc. 0.5 w/v %); 97.4% in data set [2] (additive conc. 1.0 w/v %); 65.3% in data set [2] (additive conc. 2.0 w/v %).
